Experimental data taken from PMC9964718, “Diterpenoids from Euphorbia gedrosiaca as Potential Anti-Proliferative Agents against Breast Cancer Cells” (Metabolites, 2023).

What was measured:
[1] = tested on: MDA-MB-231 (ATCCR HTB-26) breast cancer cells; experiment: MTT viability assay, MDA-MB-231 breast cancer cells; assay type: cell-based; conditions: for IC50: Homo sapiens, MDA-MB-231, MTT, 24 h incubation, mean ± SD (n = 3), read-out: Cytotoxic activity IC50; for Cytotoxicity against MDA-MB-231 compared to MCF-7: comparison of MTT test results, MDA-MB-231 vs MCF-7
Experimental: (§1) MDA MB-231 and MCF-7 (ATCCR HTB-26 and ATCCR HTB-22) breast cancer cells, originated from Pasteur Institute (IPI, Tehran, I.R. Iran), were cultured in RPMI1640 with streptomycin, penicillin, and fetal bovine serum (FBS) (100 µg/mL, 100 units/mL, 10%) with criteria of 5% carbon dioxide, 37 °C, and 95% humidity for a few days. Mouse normal fibroblast cell line (NCTC clone 929 from the same institute) was cultured in DMEM+10% FBS+ 1% penicillin/streptomycin in the same conditions. After incubation, cells were seeded at 7 × 10^3 cells in each well of ninety-six well plates for 12 h. Then, the media were changed, and sample compounds in concentrations of 1, 10, and 100 µM were added. For L929 normal cell line, samples were added in the concentrations of 1, 10, 100, 250, and 500 µM. Placebo with the same amount of DMSO in each concentration used for compounds and Taxol in concentrations of 0.001, 0.01, 0.1, 1, and 10 µM were added as the negative and positive controls. After 24 h incubation time, the reduction agent (MTT, 5 mg/mL, 20 µL) was added to each well and incubated for 4 h to let the MTT be reduced into formazan derivative by the mitochondria of survived cells. The media was then changed with DMSO (200 µL) to solubilize the insoluble formazan crystals, and the absorbance was read by a Synergy ELISA reader (BioTek Instruments, Winooski, VT, USA) at 570 nm.

[2] = tested on: MCF-7 (ATCCR HTB-22) breast cancer cells; experiment: MTT viability assay, MCF-7 breast cancer cells; assay type: cell-based; conditions: for IC50: Homo sapiens, MCF7, MCF-7, MTT, 24 h incubation, mean ± SD (n = 3), read-out: Cytotoxic activity IC50; for Potency in MTT assay: MCF-7, 100 μM concentration, P values less than 0.0001
Experimental: as §1

[3] = MTT viability assay, L929 normal fibroblast cell line; assay type: cell-based; conditions: L929 normal fibroblast cells (NCTC clone 929), L929 (normal) mouse fibroblast, 24 h incubation, mean ± SD (n = 3), read-out: Cytotoxic activity IC50
Experimental: as §1

[4] = tested on: human lung (A549) tumor cells; parameters: method as in PMID 30200407; conditions: cited from earlier work
[5] = tested on: human colon (Caco-2) tumor cells; parameters: method as in PMID 30200407; conditions: cited from earlier work
[6] = parameters: method as in PMID 30707022; conditions: compound isolated from roots of Euphorbia prolifera; cited from earlier work

SMILES | IC50 [1] [µM] | IC50 [2] [µM] | Potency in MTT assay [2] | IC50 at 24 h [3] [µM] | Cytotoxicity against proliferation [4] | Cytotoxicity against proliferation [5] | Lipid-lowering activities and TG inhibitory effects [6] | Cytotoxicity against MDA-MB-231 compared to MCF-7 [1]
CCC(=O)O[C@@H]1[C@@H]2[C@@H](OC(=O)C(C)CC)[C@@]3(COC(=O)c4cccnc4)[C@@H]([C@@H]4[C@H](C[C@H]3OC(C)=O)C4(C)C)[C@](C)(OC(C)=O)C(=O)[C@@]2(O)C[C@@H]1C (stereo partly drawn) [Compound 1, 3β-O-propanoyl-5α-O-methylbutanoyl-7α,13β-O-diacetyl-17α-O-nicotinoyl-14-oxopremyrsinane] | 10.8 ± 2.1 | 22.2 ± 2.4 | reasonably potent | 528 ± 23.8 | moderate cytotoxicity | moderate cytotoxicity |  | 
CCC(=O)O[C@@H]1[C@@H]2[C@@H](OC(=O)c3ccccc3)[C@@]3(COC(C)=O)[C@@H]([C@@H]4[C@H](C[C@H]3OC(C)=O)C4(C)C)[C@](C)(OC(C)=O)C(=O)[C@@]2(O)C[C@@H]1C [Compound 2, 3β-O-propanoyl-5α-O-benzoyl-7α,13β, 17α -O-triacetyl-14-oxopremyrsinane] | 22.2 ± 4 | 27.8 ± 2.5 | reasonably potent | 553 ± 26.7 |  |  | acceptable | 
CCC(=O)O[C@@H]1[C@@H]2[C@@H](OC(=O)C(C)C)[C@@]3(COC(C)=O)[C@@H]([C@@H]4[C@H](C[C@H]3OC(C)=O)C4(C)C)[C@](C)(OC(C)=O)C(=O)[C@@]2(O)C[C@@H]1C [Compound 3, 3β-O-propanoyl-5α-O-isobutanoyl-7α,13β, 17α -O-triacetyl-14-oxopremyrsinane] | 24.5 ± 3.8 | 62.6 ± 4.9 |  | 433 ± 22.1 | moderate cytotoxicity | moderate cytotoxicity |  | almost three times higher cytotoxicity
CCC(=O)O[C@@H]1[C@@H]2[C@@H](OC(=O)C(C)C)[C@@]3(COC(=O)c4cccnc4)[C@@H]([C@@H]4[C@H](C[C@H]3OC(C)=O)C4(C)C)[C@](C)(OC(C)=O)C(=O)[C@@]2(O)C[C@@H]1C [Compound 4, 3β-O-propanoyl-5α-O-isobutanoyl-7α,13β-O-diacetyl-17α-O-nicotinoyl-14-oxopremyrsinane] | 27.3 ± 3.2 | 74.4 ± 5.2 |  | 716 ± 26.9 | moderate cytotoxicity | moderate cytotoxicity |  | almost three times higher cytotoxicity
CCC(=O)OC1C2C(OC(C)=O)C34COC(C)(C(OC(=O)c5ccccc5)C2(OC(C)=O)CC1(C)OC(C)=O)C3C(C(C)(C)OC(C)=O)C=CC4OC(C)=O (centres unmarked) [Compound 5, 2,5,7,10,15-O-pentaacetyl-3-O-propanoyl-14-O-benzoyl-13,17-epoxy-8-myrsinene] | 33.7 ± 4.6 | 126 ± 4.2 |  | 596 ± 23.5 |  |  |  | 
